According to patent EP4768489A1, “CYCLOBUTYL-CONTAINING COMPOUNDS” (Chia Tai Tianqing Pharmaceutical Group Co., Ltd., priority 2023, dated 2025):

Experiments:
22RV1 (H875Y/ARV7) cells = assay: Assay on inhibitory activity for 22RV1 (H875Y/ARV7) cell proliferation (CellTiter-Glo); format: cell-based; conditions: Homo sapiens, 168 h
Description: After 10 min of incubation at room temperature, the mixture was transferred to a white plate at 100 µL/well. […] Table 6. Inhibitory activity of compounds for 22RV1 (H875Y/ARV7) cell proliferation

[1] = tested on: MDA-PCA-2B (L702H\T878A) cells; assay: Assay on inhibitory activity for MDA-PCA-2B (L702H\T878A) cell proliferation (CCK-8); format: cell-based; conditions: 168 h
Description: Table 7. Inhibitory activity of compounds for MDA-PCA-2B (L702H\T878A) cell proliferation

Mouse pharmacokinetics = conditions: Mouse i.g. (0-48 h), 10 mpk vs i.v. 1 mpk
Description: (§1) ICR mice weighing 18-22 g were randomized into groups of 9 after 3-5 days of acclimatization. The mice in the intragastric administration group were intragastrically given the test compound solution at a dose of 10 mg/kg (20 mg/kg or 30 mg/kg), and the mice in the intravenous injection administration group were intravenously injected with the test compound solution at a dose of 1 mg/kg.
(§2) Blood was collected from the orbit to prepare plasma samples to be tested.
(§3) 30 µL of each of the plasma samples to be tested and a standard curve sample were taken, and an acetonitrile solution containing an internal standard was added. Supernatants were obtained by protein precipitation, diluted with a 1:1 (v:v) mixed solution of acetonitrile and water, and then assayed by LC/MS/MS. Data were fitted using a non-compartmental model.

[2] = In vitro liver microsome stability, mouse; format: in vitro ADME; conditions: mouse liver microsomes 0.5 mg/mL, 37 °C, NADPH
Description: Liver microsome incubation samples were prepared by mixing a PBS buffer (pH 7.4), a liver microsome solution (0.5 mg/mL), a test compound, and an NADPH + MgCl2 solution, followed by incubation at 37 °C and 300 rpm for 1 h. Zero-hour samples were prepared by mixing a PBS buffer (pH 7.4), a liver microsome solution (0.5 mg/mL), and a test compound. […]

in vivo = conditions: mouse
Description: as §1, §2, §3

VCaP cells = assay: Assay on inhibitory activity for VCaP cell proliferation (CCK-8); format: cell-based; conditions: Homo sapiens, 168 h
[3] = biological target: T1, AR in LNCaP (T878A) cells (Homo sapiens, UniProt P10275, T878A); assay: Assay on degradation activity for AR in LNCaP (T878A) cells (HTRF); format: cell-based; conditions: maximum degradation rate, 24 h
T1 construct: Assay on degradation activity for AR in LNCaP (T878A) cells; endogenous in cells; host or cells: LNCaP cells
T1 sequence (P10275 1-920 T878A): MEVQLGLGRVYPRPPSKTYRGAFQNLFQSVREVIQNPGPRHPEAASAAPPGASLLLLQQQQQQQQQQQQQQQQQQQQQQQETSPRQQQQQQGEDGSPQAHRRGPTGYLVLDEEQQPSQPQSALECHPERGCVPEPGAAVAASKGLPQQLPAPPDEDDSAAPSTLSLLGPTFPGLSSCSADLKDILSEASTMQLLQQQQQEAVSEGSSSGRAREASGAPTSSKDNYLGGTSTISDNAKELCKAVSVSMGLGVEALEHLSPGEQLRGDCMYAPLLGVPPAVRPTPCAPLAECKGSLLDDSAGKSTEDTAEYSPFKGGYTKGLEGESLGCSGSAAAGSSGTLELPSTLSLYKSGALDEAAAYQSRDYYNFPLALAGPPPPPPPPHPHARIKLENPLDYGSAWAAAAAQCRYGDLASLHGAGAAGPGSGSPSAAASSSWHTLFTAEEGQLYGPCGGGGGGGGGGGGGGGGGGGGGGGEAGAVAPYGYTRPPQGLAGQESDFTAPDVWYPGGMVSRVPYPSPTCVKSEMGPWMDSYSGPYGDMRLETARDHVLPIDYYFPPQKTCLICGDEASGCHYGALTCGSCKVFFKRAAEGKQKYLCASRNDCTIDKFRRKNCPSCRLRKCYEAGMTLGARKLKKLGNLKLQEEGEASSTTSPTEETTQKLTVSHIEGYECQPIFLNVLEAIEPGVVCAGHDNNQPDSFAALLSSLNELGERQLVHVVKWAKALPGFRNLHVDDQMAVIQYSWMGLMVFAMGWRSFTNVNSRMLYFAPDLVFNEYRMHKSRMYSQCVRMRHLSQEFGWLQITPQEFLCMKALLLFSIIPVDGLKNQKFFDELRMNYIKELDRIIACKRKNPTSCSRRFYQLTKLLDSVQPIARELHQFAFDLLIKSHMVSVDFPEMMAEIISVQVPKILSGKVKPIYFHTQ
Description: The detection was carried out using the HTRF HUMAN ANDROGEN RECEPTOR DETECTION KIT (cisbio, 64ANDRPEG), 4× Supplemented Lysis buffer was prepared using the Blocking reagent stock solution (100×) and Lysis buffer stock solution (4×), and 1× Supplemented Lysis buffer was prepared using the 4× Supplemented Lysis buffer and ddH2O. Premixed antibody solutions were prepared using Detection buffer, Androgen Receptor Eu Cryptate antibody, and Androgen Receptor d2 antibody.
The cells were cultured overnight in a cell incubator. […] After the cells were oscillated for 40 min at room temperature, 16 µL of the cell lysis buffer was added to a 384-well plate, the Premixed antibody solutions were added at 4 µL/well, and the mixture was left to stand at 25 °C for 2 h. […] Table 2. Degradation activity of compounds for AR in LNCaP (T878A) cells

LNCaP (T878A) cells = assay: cells; conditions: Homo sapiens, 168 h
Description: LNCaP cells in a good growth state were taken, washed with PBS, and digested with pancreatin, and a phenol red-free 1640 complete medium containing 2% CSS-FBS was added to terminate the digestion. The cells were collected into a centrifuge tube, adjusted to a cell density of 1 × 10^5 cells/mL, and seeded in a 96-well plate (100 µL/well). Meanwhile, compounds were added using a nanoliter pipettor and subjected to a 2-fold gradient dilution such that the final concentrations of the compounds were 1000 nM-0.061 nM and 5000 nM-0.305 nM. 2 duplicate wells were set, and meanwhile, a control was set. After the cells were cultured in the cell incubator for another 168 h, the detection reagent CCK-8 (manufacturer: Dojindo, 10 µL/well) was added. After 2.0 h of incubation in the cell incubator, absorbance values at 450 nm were measured using a PerkinElmer Envision microplate reader, the four-parameter analysis was performed, the dose-response curves were fit, and IC50 was calculated.

Q: Which IC50 (22RV1 (H875Y/ARV7) cells) does the source give for `COc1cc(O[C@H]2C(C)(C)[C@H](NC(=O)c3ccc(N4CCC(CN5CCc6c(ccc7c(C8CCC(=O)NC8=O)noc67)C5)CC4)cc3)C2(C)C)ccc1C#N` (stereo partly drawn) [Compound 1] here?
A: < 500 nM

Q: What about the IC50 [1] of the same compound?
A: < 500 nM

Q: And the F (Mouse pharmacokinetics)?
A: 31.99%

Q: What about the “MLM (mouse) Remaining amount at 60 min %” value [2] of the same compound?
A: >70%

Q: And the AUC at 48 h (in vivo; iv, 1 mg/kg)?
A: 8380 ng·h/mL

Q: And the Vd (in vivo; iv, 1 mg/kg)?
A: 2.13 L/kg

Q: What about the clearance (in vivo; iv, 1 mg/kg) of the same compound?
A: 1.78 mL/min/kg

Q: What about the half-life (in vivo; iv, 1 mg/kg) of the same compound?
A: 13.9 h

Q: And the AUC at 48 h (in vivo; po, 10 mg/kg)?
A: 26800 ng·h/mL

Q: What about the Cmax (in vivo; po, 10 mg/kg) of the same compound?
A: 786 ng/mL

Q: And the half-life (in vivo; po, 10 mg/kg)?
A: 24.9 h

Q: And the IC50 (VCaP cells)?
A: < 2000 nM

Q: And the Dmax [3]?
A: > 90%

Q: And the IC50 (LNCaP (T878A) cells)?
A: < 50 nM

Q: With `COc1cc(O[C@H]2C(C)(C)[C@H](NC(=O)c3ccc(N4CCC(CN5CCc6c(ccc7c(C8CCC(=O)NC8=O)noc67)C5)CC4)nc3)C2(C)C)ccc1C#N` (stereo partly drawn) [Compound 3] as the compound, how does the IC50 (22RV1 (H875Y/ARV7) cells) read?
A: < 500 nM

Q: And the IC50 [1]?
A: < 500 nM

Q: What about the “MLM (mouse) Remaining amount at 60 min %” value [2] of the same compound?
A: >70%

Q: What about the IC50 (VCaP cells) of the same compound?
A: < 2000 nM

Q: What about the Dmax [3] of the same compound?
A: > 90%

Q: What about the IC50 (LNCaP (T878A) cells) of the same compound?
A: < 50 nM

Q: For `COc1cc(O[C@H]2C(C)(C)[C@H](NC(=O)c3cnc(N4CCC(CN5CCc6c(ccc7c(C8CCC(=O)NC8=O)noc67)C5)CC4)nc3)C2(C)C)ccc1C#N` (stereo partly drawn) [Compound 4], which IC50 (22RV1 (H875Y/ARV7) cells) is on record?
A: < 500 nM

Q: And the IC50 [1]?
A: < 500 nM

Q: And the F (Mouse pharmacokinetics)?
A: 55.36%

Q: And the “MLM (mouse) Remaining amount at 60 min %” value [2]?
A: >70%

Q: And the AUC at 48 h (in vivo; iv, 1 mg/kg)?
A: 7730 ng·h/mL

Q: And the Vd (in vivo; iv, 1 mg/kg)?
A: 2.14 L/kg

Q: What about the clearance (in vivo; iv, 1 mg/kg) of the same compound?
A: 1.97 mL/min/kg

Q: And the half-life (in vivo; iv, 1 mg/kg)?
A: 10.5 h

Q: What about the AUC at 48 h (in vivo; po, 10 mg/kg) of the same compound?
A: 39000 ng·h/mL

Q: What about the Cmax (in vivo; po, 10 mg/kg) of the same compound?
A: 1360 ng/mL

Q: And the half-life (in vivo; po, 10 mg/kg)?
A: 11.7 h

Q: And the IC50 (VCaP cells)?
A: < 2000 nM

Q: And the Dmax [3]?
A: > 90%

Q: What about the IC50 (LNCaP (T878A) cells) of the same compound?
A: < 50 nM

Q: With `COc1cc(O[C@H]2C(C)(C)[C@H](NC(=O)c3cnc(N4CCC(CN5CCc6c(ccc7c(C8CCC(=O)NC8=O)noc67)C5)CC4)cn3)C2(C)C)ccc1C#N` (stereo partly drawn) [Compound 5] as the compound, how does the IC50 (22RV1 (H875Y/ARV7) cells) read?
A: < 500 nM

Q: What about the IC50 [1] of the same compound?
A: < 500 nM

Q: What about the F (Mouse pharmacokinetics) of the same compound?
A: 50.78%

Q: What about the “MLM (mouse) Remaining amount at 60 min %” value [2] of the same compound?
A: >70%

Q: And the AUC at 48 h (in vivo; iv, 1 mg/kg)?
A: 4340 ng·h/mL

Q: What about the Vd (in vivo; iv, 1 mg/kg) of the same compound?
A: 3.79 L/kg

Q: What about the clearance (in vivo; iv, 1 mg/kg) of the same compound?
A: 3.5 mL/min/kg

Q: And the half-life (in vivo; iv, 1 mg/kg)?
A: 9.91 h

Q: What about the AUC at 48 h (in vivo; po, 10 mg/kg) of the same compound?
A: 22100 ng·h/mL

Q: What about the Cmax (in vivo; po, 10 mg/kg) of the same compound?
A: 1010 ng/mL

Q: And the half-life (in vivo; po, 10 mg/kg)?
A: 9.72 h

Q: And the IC50 (VCaP cells)?
A: < 2000 nM

Q: And the Dmax [3]?
A: > 90%

Q: What about the IC50 (LNCaP (T878A) cells) of the same compound?
A: < 50 nM

Q: Which “MLM (mouse) Remaining amount at 60 min %” value [2] does the source give for `COc1cc(O[C@H]2C(C)(C)[C@H](NC(=O)c3ccc(N4CCC(CN5CCc6c(ccc7c(C8CCC(=O)NC8=O)noc67)C5)CC4)nn3)C2(C)C)ccc1C#N` (stereo partly drawn) [Compound 6] here?
A: >70%

Q: What about the Dmax [3] of the same compound?
A: > 90%

Q: And the IC50 (LNCaP (T878A) cells)?
A: < 50 nM
